In patent US20250276964A1 (Novartis AG, priority 2021, published 2025):
pEC50: −log10 of the molar value.

Columns and labels:
WIZ = target: T1, WIZ (Homo sapiens, UniProt O95785+Q96SW2); experiment: Quantification of WIZ protein levels in HiBit tag fusion protein assay (WIZ HiBit assay in 293T cells); assay type: cell-based; conditions: for Dmax at 25 µM / remaining activity at 25 µM: HEK-293T; for Dmax at 25 µM: 100 minus Amax at 25 uM, read-out: % degradation of WIZ (100-Amax); for remaining activity at 25 µM: DMSO-normalized, curve-fitted percentage of WIZ-HiBit remaining at 25 uM, read-out: WIZ Amax; for DC50: WIZ HiBit assay in 293T cells, 10-point, 5-fold dilution, highest concentration 25 μM, about 18 hours, read-out: WIZ AC50
T1 construct: expressed in transfected cells
Method in brief: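 293T cells stably carrying single-copy HiBit-WIZ (HSVTK promoter) treated ~18 h at 37 °C with 10-point, 5-fold dilutions, top 25 μM. Lytic HiBit luminescence read; Amax is DMSO-normalised, curve-fitted % WIZ-HiBit remaining at 25 uM.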

Fetal Hemoglobin (HbF) = experiment: Small molecule HbF induction assay (erythroid differentiated mPB CD34+ cells, flow cytometry); assay type: cell-based, human; conditions: for pEC50: Homo sapiens, mPB CD34+ cells expanded 6 days, erythroid differentiated with compound 7 days, 7-point, 1:3 dilution from 30 uM; for HbF Amax: highest percentage of cells staining positive for HbF (% HbF+ cells) in the fitted dose-response curve, DMSO baseline approximately 30-40%
Description: Cryopreserved primary human CD34^+ hematopoietic stem and progenitor cells were obtained from AllCells, LLC. The CD34^+ cells were isolated from the peripheral blood of healthy donors after mobilization by administration of granulocyte colony-stimulating factor. Cells were differentiated ex vivo toward the erythroid lineage using a 2-phase culture method. In the first phase, cells were cultured in StemSpan™ Serum-Free Expansion Media (SFEM) ([…] Technologies Inc.) supplemented with rhSCF (50 ng/mL, Peprotech®, Inc.), rhIL-6 (50 ng/mL, Peprotech®, Inc.), rhIL-3 (50 ng/mL, Peprotech®, Inc.), and rhFlt3L (50 ng/mL, Peprotech®, Inc.), and 1× antibiotic-antimycotic (Life Technologies, Thermo Fisher Scientific) for 6 days at 37° C. with 5% CO2. During the second phase, cells were cultured in erythroid differentiation media at 5,000 cells/mL in the presence of compound for 7 days at 37° C. with 5% CO2. Erythroid Differentiation Media is comprised of IMDM (Life Technologies) supplemented with insulin (10 μg/mL, Sigma Aldrich), heparin (2 U/mL Sigma Aldrich), holo-transferrin (330 μg/mL, Sigma Aldrich), human serum AB (5%, Sigma Aldrich), hydrocortisone (1 μM, […] Technologies), rhSCF (100 ng/mL, Peprotech®, Inc.), rhIL-3 (5 ng/mL, Peprotech®, Inc.), rhEPO (3 U/mL, Peprotech®, Inc.), and 1× antibiotic-antimycotic. All compounds were dissolved and diluted into dimethylsulfoxide (DMSO) and were added to culture media for a final concentration of 0.3% DMSO for testing in a 7-point, 1:3 dilution series starting at 30 uM.
For viability analysis, samples were washed and resuspended in phosphate-buffered saline (PBS) and stained with LIVE/DEAD™ Fixable Violet Dead Cell Stain Kit (Life Technologies, L34963) for 20 minutes. Cells were then washed again with PBS and resuspended in PBS supplemented with 2% fetal bovine serum (FBS), and 2 mM EDTA to prepare for cell surface marker analysis. Cells were labeled with allophycocyanin-conjugated CD235a (1:100, BD Biosciences, 551336) and Brilliant Violet-conjugated CD71 (1:100, BD Biosciences, 563767) antibodies for 20 minutes. For analysis of cytoplasmic Fetal Hemoglobin (HbF), cells were fixed and permeabilized using the Fixation (BioLegend®, 420801) and Permeabilization Wash (BioLegend®, 421002) Buffers according to the manufacturer's protocol. During the permeabilization step, cells were stained with phycoerythrin-conjugated or FITC-conjugated HbF-specific antibody (1:10-1:25, Invitrogen™, MHFH04-4) for 30 minutes. Stained cells were washed with phosphate-buffered saline before analysis on the FACSCanto™ I1 flow cytometer or LSRFortessa™ (BD Biosciences). […]
mPB CD34+ cells were expanded for 6 days, then erythroid differentiated in the presence of compound for 7 days. Cells were fixed, stained and analyzed by flow cytometry. […]

T1 sequence (O95785 whole entry, the tested form may be a part): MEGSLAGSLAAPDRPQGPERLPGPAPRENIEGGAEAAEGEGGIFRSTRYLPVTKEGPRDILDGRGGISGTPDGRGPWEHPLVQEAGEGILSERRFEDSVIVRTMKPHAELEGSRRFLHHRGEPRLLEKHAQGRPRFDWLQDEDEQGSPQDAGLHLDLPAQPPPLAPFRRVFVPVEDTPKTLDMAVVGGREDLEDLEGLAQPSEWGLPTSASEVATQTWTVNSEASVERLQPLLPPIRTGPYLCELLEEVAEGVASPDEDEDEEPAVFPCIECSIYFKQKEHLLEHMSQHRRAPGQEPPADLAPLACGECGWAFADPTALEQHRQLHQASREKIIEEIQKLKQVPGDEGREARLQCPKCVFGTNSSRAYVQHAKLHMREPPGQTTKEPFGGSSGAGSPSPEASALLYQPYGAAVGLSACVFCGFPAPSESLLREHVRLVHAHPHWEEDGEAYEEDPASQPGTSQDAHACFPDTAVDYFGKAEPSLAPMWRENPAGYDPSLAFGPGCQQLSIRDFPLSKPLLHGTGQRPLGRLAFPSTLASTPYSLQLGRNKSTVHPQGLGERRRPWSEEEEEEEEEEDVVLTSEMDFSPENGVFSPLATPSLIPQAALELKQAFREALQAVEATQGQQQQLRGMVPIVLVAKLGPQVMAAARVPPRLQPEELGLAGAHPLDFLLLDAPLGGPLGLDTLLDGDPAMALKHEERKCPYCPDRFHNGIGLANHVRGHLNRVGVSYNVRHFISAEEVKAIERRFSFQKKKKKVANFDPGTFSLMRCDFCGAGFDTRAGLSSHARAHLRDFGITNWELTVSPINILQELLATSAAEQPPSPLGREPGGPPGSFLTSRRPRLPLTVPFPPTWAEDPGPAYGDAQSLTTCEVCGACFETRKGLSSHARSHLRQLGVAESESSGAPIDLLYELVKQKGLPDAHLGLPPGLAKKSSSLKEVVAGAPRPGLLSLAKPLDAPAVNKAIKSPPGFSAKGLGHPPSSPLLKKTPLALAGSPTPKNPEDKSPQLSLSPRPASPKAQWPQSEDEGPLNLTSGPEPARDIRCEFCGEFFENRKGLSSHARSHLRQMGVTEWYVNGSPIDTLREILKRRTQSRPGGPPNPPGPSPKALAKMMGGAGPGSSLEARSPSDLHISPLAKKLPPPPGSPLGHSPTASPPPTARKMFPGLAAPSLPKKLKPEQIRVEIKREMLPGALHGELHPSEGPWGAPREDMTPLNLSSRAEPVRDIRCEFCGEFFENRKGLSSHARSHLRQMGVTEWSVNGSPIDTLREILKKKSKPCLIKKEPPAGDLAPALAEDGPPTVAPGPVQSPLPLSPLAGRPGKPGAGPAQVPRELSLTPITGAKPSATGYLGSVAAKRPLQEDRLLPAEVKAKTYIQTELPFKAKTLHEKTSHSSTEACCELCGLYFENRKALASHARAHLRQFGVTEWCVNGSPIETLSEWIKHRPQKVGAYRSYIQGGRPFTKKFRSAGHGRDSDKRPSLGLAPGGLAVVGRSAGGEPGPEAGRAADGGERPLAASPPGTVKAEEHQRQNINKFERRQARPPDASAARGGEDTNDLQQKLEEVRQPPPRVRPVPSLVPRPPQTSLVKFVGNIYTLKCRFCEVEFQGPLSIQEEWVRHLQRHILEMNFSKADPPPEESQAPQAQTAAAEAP
T1 sequence (Q96SW2 whole entry, the tested form may be a part): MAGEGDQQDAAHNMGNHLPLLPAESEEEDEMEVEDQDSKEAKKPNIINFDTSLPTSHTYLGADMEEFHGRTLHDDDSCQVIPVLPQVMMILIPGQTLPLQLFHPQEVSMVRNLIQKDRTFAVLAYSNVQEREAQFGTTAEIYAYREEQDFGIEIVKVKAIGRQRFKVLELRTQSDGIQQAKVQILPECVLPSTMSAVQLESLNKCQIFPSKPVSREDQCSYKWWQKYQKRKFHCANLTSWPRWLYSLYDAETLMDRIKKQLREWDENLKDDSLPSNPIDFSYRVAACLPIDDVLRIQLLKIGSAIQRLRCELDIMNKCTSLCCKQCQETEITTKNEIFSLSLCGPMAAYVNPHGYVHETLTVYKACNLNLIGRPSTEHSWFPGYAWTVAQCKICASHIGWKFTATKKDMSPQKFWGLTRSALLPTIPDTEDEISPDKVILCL
T1 sequence (Q16531 whole entry partner, the tested form may be a part): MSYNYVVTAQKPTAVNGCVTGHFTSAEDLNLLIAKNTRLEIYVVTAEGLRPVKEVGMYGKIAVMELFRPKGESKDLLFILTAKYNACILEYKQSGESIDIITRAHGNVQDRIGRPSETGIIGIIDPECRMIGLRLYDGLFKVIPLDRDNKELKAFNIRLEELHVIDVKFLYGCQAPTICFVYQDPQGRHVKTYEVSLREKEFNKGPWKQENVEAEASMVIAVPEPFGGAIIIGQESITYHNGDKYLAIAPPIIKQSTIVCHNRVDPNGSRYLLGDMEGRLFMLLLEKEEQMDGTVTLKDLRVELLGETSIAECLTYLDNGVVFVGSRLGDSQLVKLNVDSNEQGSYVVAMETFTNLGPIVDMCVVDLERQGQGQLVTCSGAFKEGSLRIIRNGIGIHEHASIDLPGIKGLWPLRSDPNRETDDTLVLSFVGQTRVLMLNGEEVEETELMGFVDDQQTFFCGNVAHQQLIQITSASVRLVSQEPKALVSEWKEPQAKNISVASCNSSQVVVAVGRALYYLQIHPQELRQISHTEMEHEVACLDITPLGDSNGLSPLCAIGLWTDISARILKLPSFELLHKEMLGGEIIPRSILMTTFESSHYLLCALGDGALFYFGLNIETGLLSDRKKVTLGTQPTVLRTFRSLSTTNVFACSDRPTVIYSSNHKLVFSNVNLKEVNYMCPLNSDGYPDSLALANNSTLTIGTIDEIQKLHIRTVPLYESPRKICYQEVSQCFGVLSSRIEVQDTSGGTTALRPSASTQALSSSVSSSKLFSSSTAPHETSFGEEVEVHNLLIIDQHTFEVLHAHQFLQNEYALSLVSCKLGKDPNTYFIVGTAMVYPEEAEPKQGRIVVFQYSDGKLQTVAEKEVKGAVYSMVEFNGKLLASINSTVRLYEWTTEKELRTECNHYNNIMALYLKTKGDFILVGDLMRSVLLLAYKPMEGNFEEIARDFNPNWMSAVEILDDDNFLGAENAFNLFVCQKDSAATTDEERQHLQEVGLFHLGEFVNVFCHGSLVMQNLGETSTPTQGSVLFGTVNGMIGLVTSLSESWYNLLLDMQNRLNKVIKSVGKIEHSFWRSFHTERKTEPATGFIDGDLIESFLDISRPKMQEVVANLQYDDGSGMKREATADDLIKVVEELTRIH

Structure (SMILES)	Dmax at 25 µM (WIZ)	remaining activity at 25 µM (WIZ)	DC50 (WIZ)	pEC50 (Fetal Hemoglobin (HbF))	HbF Amax (Fetal Hemoglobin (HbF))
C[C@H]1CN(Cc2ccc3onc(N4CCC(=O)NC4=O)c3c2)CCN1C [Example 29, (S)-1-(5-((3,4-dimethylpiperazin-1-yl)methyl)benzo[d]isoxazol-3-yl)dihydropyrimidine-2,4(1H,3H)-dione]	89%	11%	6.4 nM	7.35	80%
C[C@@H]1CN(C)CCN1Cc1ccc2onc(N3CCC(=O)NC3=O)c2c1 [Example 65, (R)-1-(5-((2,4-dimethylpiperazin-1-yl)methyl)benzo[d]isoxazol-3-yl)dihydropyrimidine-2,4(1H,3H)-dione]	84%	16%	89 nM	6.76	76%
CC(C)CN1CCN(Cc2ccc3onc(N4CCC(=O)NC4=O)c3c2)C[C@@H]1C [Example 30, (S)-1-(5-((4-isobutyl-3-methylpiperazin-1-yl)methyl)benzo[d]isoxazol-3-yl)dihydropyrimidine-2,4(1H,3H)-dione]	91%	9%	4.5 nM	–	–
CC(C)CN1CCN(Cc2ccc3onc(N4CCC(=O)NC4=O)c3c2)CC1=O [Example 113, 1-(5-((4-isobutyl-3-oxopiperazin-1-yl)methyl)benzo[d]isoxazol-3-yl)dihydropyrimidine-2,4(1H,3H)-dione]	66%	34%	256 nM	–	–
O=C1CCN(c2noc3ccc(CC4CCN(Cc5ccccc5)CC4)cc23)C(=O)N1 [Example 9, 1-(5-((1-benzylpiperidin-4-yl)methyl)benzo[d]isoxazol-3-yl)dihydropyrimidine-2,4(1H,3H)-dione]	91%	9%	56 nM	–	–
